The values below come from patent US11608501B2, “Methods for modifying RNA splicing” (PTC THERAPEUTICS, INC., priority 2017, dated 2023).

For experiment [1], the system named is RNA having an intronic REMS sequence. The experiment is described as follows: RNA sequencing of compound-treated cells: iExon inclusion or eExon formation (ΔPSI, Fisher's Exact Test). Type of experiment: cell-based. The following applies: cells treated with Compound 64 (24 nm and 100 nm); genes listed in Table 10; adjusted Fisher's Exact Test p value. As to the method:
Techniques known to one skilled in the art may be used to determine the amount of an RNA transcript(s). In some aspects, the amount of one, two, three or more RNA transcripts is measured using deep sequencing, such as ILLUMINA® RNASeq, ILLUMINA® next generation sequencing (NGS), ION TORRENT® RNA next generation sequencing, 454™ pyrosequencing, or Sequencing by Oligo Ligation Detection (SOLID™), Single Molecule, Real-Time (SMRT) sequencing, Nanopore sequencing. In other aspects, the amount of multiple RNA transcripts is measured using an exon array, such as the GENECHIP® human exon array. In certain aspects, the amount of one, two, three or more RNA transcripts is determined by RT-PCR. In other aspects, the amount of one, two, three or more RNA transcripts is measured by RT-qPCR or digital color-coded barcode technology. Techniques for conducting these assays are known to one skilled in the art. […]
Where “U” represents the value for probability of iExon inclusion (a+b)/2/[(a+b)/2+c] in the absence of the compound; and, where “C” represents the value for probability of iExon inclusion (a+b)/2/[(a+b)/2+c] in the presence of the compound. The values for “a” and “b” represent the number of reads supporting inclusion of an iExon in an RNA transcript. […] The value for “c” represents the number of reads supporting exclusion of an iExon. […]

The subject of the next experiment is SH-SY5Y cells. The experiment can be described thus: Endpoint RT-PCR of alternatively spliced mRNAs (iExon inclusion) in cultured cells. Type of experiment: cell-based, human. The following applies: cells treated at 10 nM, 1 μM or 10 μM vs DMSO; genes of FIGS. 2A-6A. As to the method: SH-SY5Y cells derived from a bone marrow biopsy of a patient with neuroblastoma were plated at 600,000 cells/well in 2 mL DMEM with 10% FBS in 6-well plates, and incubated for 4 hours in a cell culture incubator (37° C., 5% CO2, 100% relative humidity). Cells were then treated with Compound 64 at different concentrations (in 0.1% DMSO) for 24 hours. After removal of the supernatant, cells were lysed in RLT buffer with ß-mercaptoethanol and total RNA was extracted according to the manufacturer's protocol (RNeasy Mini Kit, Qiagen, Inc.).
One-step RT-PCR was performed using AgPath-ID™ One-Step RT-PCR Reagents (Life Technologies, Inc.) using 50 ng total RNA as input. The following PCR conditions were used: Step 1: 48° C. (15 min), Step 2: 95° C. (10 min), Step 3: 95° C. (30 sec), Step 4: 55° C. (30 sec), Step 5: 68° C. (1 min), repeat Steps 3 to 5 for 34 cycles, then hold at 4° C. The presence of iExons within alternatively spliced mRNAs was identified using primers listed in Tables 13 through 19, which correspond to FIGS. 2, 3, 4 and 5. PCR products were separated on 2% agarose E-gels (Life Technologies, Inc.), stained with ethidium bromide and visualized using a gel imager (UVP). […]

For `CC1(C)CC(Oc2ccc(-c3ccc(-c4cn[nH]c4)cc3O)nn2)CC(C)(C)N1` [Compound 64, 5-(1H-pyrazol-4-yl)-2-(6-((2,2,6,6-tetramethylpiperidin-4-yl)oxy)pyridazin-3-yl)phenol], in experiment [1], the “effect on inclusion of an iExon or formation of an eExon with a corresponding change in isoform abundance” value is on record as “statistically significant”. For the same compound, the “iExon-containing PCR product on agarose gel” value with SH-SY5Y cells is listed as “appearance of a slower migrating PCR product containing the intronic-derived exon”.
